Toxic doses and inconclusive results are not listed. Cut-off read from the data, not from the text of the source: active = T/C of 150% or more; inactive = T/C below 125%. Peptide text beside a SMILES is read from it. * marks the point of attachment. Boc = CC(C)(C)OC(=O)*
Test system: L1210 leukemia ip in BDF1 mice, survival T/C
Assay: NCI In Vivo Anticancer Drug Screen. Data for tumor model L1210 Leukemia (intraperitoneal) in B6D2F1 (BDF1) mice
Conditions: endpoint: mean survival time, higher = longer survival
In short: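 Tumor cells were implanted, animals were treated, and survival was followed. The result divides the treated measurement by the vehicle-control measurement.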

[1] = dose: 100.0 mg/kg/injection, schedule: Q04DX002 (ip), vehicle: Klucel (hydroxypropylcellulose) (HPC)
[2] = dose: 200.0 mg/kg/injection, schedule: Q04DX002 (ip), vehicle: Klucel (hydroxypropylcellulose) (HPC)
[3] = dose: 400.0 mg/kg/injection, schedule: Q04DX002 (ip), vehicle: Klucel (hydroxypropylcellulose) (HPC)

Measured: T/C

COc1cccc2c1CC/C(=C\c1cccnc1)C2=O
inactive: dose: 100.0 mg/kg/injection, schedule: Q04DX003 (ip), vehicle: carboxymethylcellulose (CMC) 103 % of control | dose: 200.0 mg/kg/injection, schedule: Q04DX003 (ip), vehicle: carboxymethylcellulose (CMC) 102 % of control | dose: 400.0 mg/kg/injection, schedule: Q04DX003 (ip), vehicle: carboxymethylcellulose (CMC) 95 % of control

CCOC(=O)c1cnc(SC)nc1Nc1ccccc1C
inactive: dose: 100.0 mg/kg/injection, schedule: Q01DX009 (ip), vehicle: Klucel (hydroxypropylcellulose) (HPC) 96 % of control | dose: 100.0 mg/kg/injection, schedule: Q04DX003 (ip), vehicle: Klucel (hydroxypropylcellulose) (HPC) 97 % of control | dose: 200.0 mg/kg/injection, schedule: Q01DX009 (ip), vehicle: Klucel (hydroxypropylcellulose) (HPC) 93 % of control | dose: 200.0 mg/kg/injection, schedule: Q04DX003 (ip), vehicle: Klucel (hydroxypropylcellulose) (HPC) 98 % of control | dose: 400.0 mg/kg/injection, schedule: Q01DX009 (ip), vehicle: Klucel (hydroxypropylcellulose) (HPC) 91 % of control | dose: 400.0 mg/kg/injection, schedule: Q04DX003 (ip), vehicle: Klucel (hydroxypropylcellulose) (HPC) 98 % of control

COC(=O)C(Cc1ccccc1)NC(=O)C(Cc1ccccc1)NC(=O)OC(C)(C)C (stereo not drawn) (Boc-Phe-Phe-OMe; configuration not given here)
inactive: [1] 94 % of control | [2] 101 % of control | [3] 108 % of control

CCOC(=O)N[n+]1ccc(C)cc1
inactive: dose: 75.0 mg/kg/injection, schedule: Q01DX001 (ip), vehicle: other 101 % of control | dose: 150.0 mg/kg/injection, schedule: Q01DX001 (ip), vehicle: other 101 % of control | dose: 300.0 mg/kg/injection, schedule: Q01DX001 (ip), vehicle: other 105 % of control

C=COCCN1C(=O)c2ccccc2C1=O
inactive: [1] 102 % of control | [2] 120 % of control | [3] 106 % of control

O=C(O)C1=CC2CC1C1CC(C(=O)O)CC21 (centres undefined)
inactive: dose: 100.0 mg/kg/injection, schedule: Q01DX001 (ip), vehicle: Klucel (hydroxypropylcellulose) (HPC) 105 % of control | dose: 200.0 mg/kg/injection, schedule: Q01DX001 (ip), vehicle: Klucel (hydroxypropylcellulose) (HPC) 91 % of control | dose: 400.0 mg/kg/injection, schedule: Q01DX001 (ip), vehicle: Klucel (hydroxypropylcellulose) (HPC) 103 % of control

O=C(O)/C=C/c1ccc(O)c(O)c1
inactive: dose: 100.0 mg/kg/injection, schedule: Q04DX002 (ip), vehicle: gum acacia 92 % of control | dose: 200.0 mg/kg/injection, schedule: Q04DX002 (ip), vehicle: gum acacia 92 % of control | dose: 400.0 mg/kg/injection, schedule: Q04DX002 (ip), vehicle: gum acacia 95 % of control

CC(=O)OCCC(=O)N1Cc2cc3ccccc3nc2C1
inactive: dose: 10.0 mg/kg/injection, schedule: Q04DX003 (ip), vehicle: alcohol 96 % of control | dose: 20.0 mg/kg/injection, schedule: Q04DX003 (ip), vehicle: alcohol 94 % of control | dose: 40.0 mg/kg/injection, schedule: Q04DX003 (ip), vehicle: alcohol 96 % of control | dose: 80.0 mg/kg/injection, schedule: Q04DX003 (ip), vehicle: alcohol 96 % of control | dose: 160.0 mg/kg/injection, schedule: Q04DX003 (ip), vehicle: alcohol 92 % of control

— PubChem BioAssay AID248 (DTP/NCI, 2004)
